Laboratory results published in PubChem BioAssay AID1626 (SRMLSC, 2009).

Test system: M. tuberculosis H37Rv growth inhibition
Experiment: M. tuberculosis H37Rv growth inhibitors, H37Rv strain (AID 1626)
Conditions: for IC90: measured here: IC90 against H37Rv; for CC50: measured here: Vero cell cytotoxicity

Row | Structure (SMILES) | IC50 | IC90 | CC50
1 | O=C(NCCN1CCOCC1)c1ccc([N+](=O)[O-])cc1[N+](=O)[O-] | 2.11 µM | 3.4 µM | –
2 | CCOc1ccccc1/C=C/C(=O)c1ccc(Cl)cc1 | 24.3 µM | 34.2 µM | > 40 µM
3 | CCSc1nnc(NC(=O)c2ccc3ccccc3n2)s1 | 0.628 µM | 2.19 µM | 38.1 µM
4 | COc1ccc(-c2cc(O)cc(O)c2)cc1 | 8.79 µM | > 100 µM | –
5 | Oc1c(CN2CCc3ccccc3C2)cc(Cl)c2cccnc12 | 7.65 µM | 9.8 µM | 4.88 µM
6 | Cc1ccccc1C(=O)N1CCc2cc(-c3nc(NC(=O)Cc4ccc5c(c4)OCO5)sc3C)ccc21 | – | – | > 40 µM
7 | O=C(NCc1cn(-c2ccccc2)nc1-c1ccccc1)c1cc([N+](=O)[O-])cc([N+](=O)[O-])c1 | 0.591 µM | 0.847 µM | > 40 µM
8 | Cc1cccc(OCCCCc2c(C)n[nH]c2C)c1C | 2.75 µM | 3.87 µM | 30.2 µM
9 | O=C(CSc1nnc(-c2ccco2)o1)c1ccccc1Cl | – | > 100 µM | –
10 | COc1ccccc1N1CCN(c2ncc(C(=O)N3CCN(c4cccc(Cl)c4)CC3)c3ccccc23)CC1 | – | – | > 40 µM
11 | CCCn1c(NC(=O)c2cccc(C)c2C)nc2ccccc21 | 1 µM | 3.63 µM | 24.7 µM
12 | Cn1nc(C(F)(F)F)c2cc(NC(=O)OCC(C)(C)C)sc21 | 13.3 µM | > 100 µM | –
13 | CN(C)CCCn1c(=O)n(CCc2ccccc2)c(=O)c2c3c(sc21)CCCCC3 | 11.6 µM | 12.9 µM | 18.1 µM
14 | O=C(COc1ccc(Cl)cc1)Nc1ccc2c(c1)CCC2 | 12.6 µM | > 100 µM | –
15 | COc1ccc(CCNc2cc(C)nc3c(-c4ccc(Cl)cc4)c(C)nn23)cc1OC | 1 µM | 5.53 µM | > 40 µM
16 | CCOC(=O)CSc1nc2c(c(-c3ccc(C)o3)c1C#N)CCCC2 | 2.36 µM | 3.53 µM | –
17 | Clc1ccc(COC(Cn2ccnc2)c2ccc(Cl)cc2Cl)cc1 (stereo not given) | 3.74 µM | 5.68 µM | 33.1 µM
18 | COc1ccc(-c2csc(-c3cccs3)n2)cc1OC | 11.3 µM | > 100 µM | –
19 | COc1cccc2c1C(=O)c1c(O)c3c(c(O)c1C2=O)C[C@@](O)(C(=O)CO)C[C@@H]3O[C@H]1C[C@H](N)[C@@H](O)[C@H](C)O1 | 14.9 µM | 26.4 µM | 7.47 µM
20 | CCOC(=O)c1cnn(-c2nc3c(C)cccc3s2)c1C(F)(F)F | 54.6 µM | > 100 µM | > 40 µM
21 | COc1cnc(-c2ccccn2)nc1Sc1ccc(F)cc1 | < 0.195 µM | 12.9 µM | 19.2 µM

Row | Structure (SMILES) | IC50 | IC90 | CC50
22 | Cn1nnnc1SCC(=O)Nc1nc(-c2ccccc2)c(-c2ccccc2)o1 | 35.6 µM | > 100 µM | > 40 µM
23 | CCCCC(=O)Nc1ccc2c(c1)oc1ccccc12 | – | > 100 µM | –
24 | O=C(CSc1nnc(-c2ccccc2Br)o1)N1CCc2ccccc2C1 | 2.32 µM | 3.38 µM | –
25 | O=C(/C=C/c1ccc2c(c1)OCO2)c1c(O)n(CCc2ccccc2)c(=O)[nH]c1=O | 6.87 µM | 9.99 µM | 27.4 µM
26 | O=c1[nH][nH]c(-c2ccccc2O)c1C(C[N+](=O)[O-])c1ccc(Cl)cc1Cl (stereo not given) | 10.5 µM | 15 µM | > 40 µM
27 | O=[N+]([O-])c1ccc(N=Nc2c(Cl)cc(O)cc2Cl)cc1 | 1.64 µM | 2.41 µM | 5.17 µM
28 | O=C(CCSc1nnc(-c2ccccc2)o1)N1CCOCC1 | 13 µM | 18 µM | –
29 | Cc1ccc(NC(=O)c2ccc([N+](=O)[O-])o2)cc1C | < 0.195 µM | 8.63 µM | > 40 µM
30 | Clc1ccc(Nc2ncn[nH]2)c(Cl)c1 | 6.68 µM | > 100 µM | > 40 µM
31 | CC1CC1C(=O)Nc1ccc(-c2ccccc2)cc1 (stereo not given) | 0.31 µM | > 100 µM | –
32 | CCCOC(=O)c1ccc(NC(=O)C(=O)NCCN(CC)CC)cc1 | 53.1 µM | > 100 µM | –
33 | COc1ccc(OCC(=O)Nc2ccc3nc(C)sc3c2)cc1 | 10.7 µM | > 100 µM | –
34 | CCCn1c(NC(=O)c2ccccc2)nc2ccccc21 | 3.89 µM | > 100 µM | > 40 µM
35 | CCC(C)c1ccc(NC(=O)COC(=O)C2=COCCO2)cc1 (stereo not given) | 4.54 µM | > 100 µM | –
36 | O=C(C[n+]1cc(-c2ccc(F)cc2)n2c1CCC2)Nc1nc(-c2ccc(F)cc2)cs1 | 10.5 µM | 41.1 µM | –
37 | O=C(NCCc1ccc(Cl)cc1)C1CCC(CNc2c(N3CCCCC3)c(=O)c2=O)CC1 (stereo not given) | 11.8 µM | 13.4 µM | –
38 | O=C(CN1CCN(CC(=O)Nc2ccc(OCc3ccccc3)cc2)CC1)Nc1ccc(F)cc1 | 34.5 µM | > 100 µM | –
39 | COc1ccc(COCC(O)CN2CCC(CN3C(=O)c4cccc5cccc(c45)C3=O)CC2)cc1OC (stereo not given) | 12.9 µM | > 100 µM | > 40 µM
40 | Cc1cc(SCC(=O)OC/C(O)=C(\C#N)c2nc3ccccc3[nH]2)c(C)cc1Br | 9.09 µM | 12.6 µM | > 40 µM
41 | CCOC(=O)c1ccc(NC(=O)COc2ccccc2CNCCc2ccccc2)cc1 | 4.77 µM | 6.88 µM | 25.2 µM
42 | CCCOC(=O)CSc1nc(N)c(C#N)c(-c2ccco2)c1C#N | < 0.195 µM | 0.907 µM | –

Row | Structure (SMILES) | IC50 | IC90 | CC50
43 | CCOc1ccc(N2C(=O)/C(=C\c3ccc(OC)c(O)c3)S(=O)(=O)C2c2cccc([N+](=O)[O-])c2)cc1 (stereo not given) | – | > 100 µM | –
44 | CN(C)CCCNc1cc(C(C)(C)C)nc2c(-c3ccc(Cl)cc3)cnn12 | 0.874 µM | 1.37 µM | 9.25 µM
45 | Cc1nc2ccccc2n1/N=C/c1ccc([N+](=O)[O-])s1 | < 0.195 µM | < 0.195 µM | 5.49 µM
46 | O=C(Nc1nnc(-c2ccc(Cl)s2)o1)C1CCCCC1 | 3.84 µM | > 100 µM | > 40 µM
47 | O=[N+]([O-])c1ccc(-n2nnnc2-c2ccccc2)c([N+](=O)[O-])c1 | 5.8 µM | 9.88 µM | 10.7 µM
48 | O=C1C=C(c2cccs2)C[C@H](c2ccccc2)[C@H]1n1nnc([N+](=O)[O-])n1 | 3.8 µM | 7.5 µM | < 0.078 µM
49 | Cc1ccc(CNC(=O)c2ccc([N+](=O)[O-])o2)cc1 | < 0.391 µM | 2.89 µM | 8.28 µM
50 | COC(=O)Cc1ccc(NC(=O)c2ccc(Br)o2)cc1 | – | > 100 µM | –
51 | CCC1CCCCN1C(=O)COC(=O)c1cc2ccccc2cc1O (stereo not given) | 1.25 µM | 4.34 µM | –
52 | Cc1ccccc1-n1nnc2c(=O)oc3ccccc3c21 | 4.48 µM | > 100 µM | –
53 | O=C(C1CCN(c2nnc(-n3cccc3)s2)CC1)N1CCN(c2cccc(C(F)(F)F)c2)CC1 | 0.258 µM | 1.05 µM | > 40 µM
54 | CCc1ccc(-c2nn(-c3ccccc3)cc2CSC(=N)N)cc1 | 6.73 µM | 10.7 µM | 14 µM
55 | CCOC(=O)CSc1nnc(-c2ccc(NS(=O)(=O)c3ccc(C)cc3)cc2)o1 | 2.27 µM | 5.26 µM | –
56 | CCn1c(NC(=O)C2CCCCC2)nc2ccccc21 | 1.86 µM | > 100 µM | > 40 µM
57 | Nc1ccc2ncccc2c1 | 37.9 µM | > 100 µM | –
58 | COc1ccc(NC(=O)CSC2=C(C#N)C(c3ccco3)C(C(=O)Nc3nc4ccccc4s3)=C(C)N2)cc1 (stereo not given) | 14 µM | > 100 µM | > 40 µM
59 | O=C(Nc1ccc(-c2csnn2)cc1)C(Cl)(Cl)Cl | < 0.195 µM | > 100 µM | –
60 | CCOc1ccc(-n2cc(-c3ccccc3)c3c(SC(C)C(=O)OC)ncnc32)cc1 (stereo not given) | 6.4 µM | > 100 µM | –
61 | CC(C)=CCOc1ccc([C@@H]2COc3c(ccc4c3C=CC(C)(C)O4)C2)c(O)c1 | 19.4 µM | 60.9 µM | > 40 µM
62 | O=C(c1ccccc1)C1CN(Cc2ccccc2)CCC1(O)c1ccccc1 (stereo not given) | 24.8 µM | 28.2 µM | –
63 | O=C(c1ccc([N+](=O)[O-])s1)N1CCN(c2cccc(Cl)c2)CC1 | 9.2 µM | 12.8 µM | 31.6 µM

Row | Structure (SMILES) | IC50 | IC90 | CC50
64 | Clc1ccc(-c2ccc(C=Nc3ccc(N4CCOCC4)cc3)o2)c(Cl)c1 | – | > 100 µM | –
65 | c1ccc(CN2CCN(c3nc(-c4ccccc4)nc(-n4ccnc4)n3)CC2)cc1 | 1.5 µM | 2.2 µM | > 40 µM
66 | Clc1ccc(-[n+]2c(-c3cccc(Br)c3)[nH]c3nc4ccccc4nc32)cc1 | – | > 100 µM | > 40 µM
67 | Cn1c2c(c(=O)n(C)c1=O)C(C(F)(F)F)(C(F)(F)F)N=C(c1ccc(Cl)cc1)N2 | 4.92 µM | 6.68 µM | 2.61 µM
68 | COc1ccc(N)c2c1C(=O)c1ccccc1C2=O | 17.5 µM | > 100 µM | > 40 µM
69 | COc1ccc(Nc2ccccc2N)cc1 | 1.05 µM | 2.46 µM | –
70 | CCOC(=O)C(Nc1ccc2ccccc2c1)C(=O)OCC | 1.04 µM | 2.86 µM | > 40 µM
71 | Clc1ccc2nc(-c3ccccn3)c(Nc3ccc4c(c3)OCO4)n2c1 | 2.56 µM | 4.43 µM | 11.1 µM
72 | O=C(CSc1ccccn1)Nc1ccc2ccccc2c1 | 8.69 µM | > 100 µM | –
73 | O=c1[nH]c(-c2ccccn2)nc2ccccc12 | 5.87 µM | 6.72 µM | > 40 µM
74 | N#Cc1nc(-c2cccs2)oc1NCCc1ccccc1 | 1.97 µM | 5.43 µM | –
75 | COc1ccc(CNCCC(c2ccc(F)cc2)c2ccc(OC(C)C)cc2)cc1OC (stereo not given) | 15.2 µM | 20.8 µM | 15.4 µM
76 | COc1ccc(NC(=O)c2ccc(OC(F)F)cc2)cc1Cl | 20.7 µM | > 100 µM | –
77 | CCOC(=O)c1cnc(-n2nc(C)cc2C)nc1NCc1ccc2c(c1)OCO2 | 4.62 µM | > 100 µM | > 40 µM
78 | CC1CCC(C(C)C)C(OC(=O)Cn2c(-c3ccc(F)cc3)[n+](C)c3ccccc32)C1 (stereo not given) | 6.98 µM | 11.4 µM | –
79 | CCn1ccnc1CN(C)Cc1cn(-c2ccc(C)cc2)nc1-c1ccc(F)cc1 | 5.81 µM | 6.72 µM | > 40 µM
80 | Cc1ccc2c(c1)Cc1nc3ccccc3nc1-2 | 83.5 µM | > 100 µM | > 40 µM
81 | O=C(Nc1ncc(Cc2ccccc2)s1)c1cccs1 | 49 µM | > 100 µM | > 40 µM
